The record followed here is US6387909B1, “Thienopyranecarboxamide derivatives” (Recordati S.A. Chemical and Pharmaceutical Company, priority 1999, dated 2002).

Broadly, the Ki is a dissociation constant, usually derived from enzyme kinetics or from competition with a known ligand.

Each structure is given as a SMILES string.

The target of assay [1] is T1, recombinant α1a-adrenoceptor (Homo sapiens, UniProt P35348).
T1 construct: expressed in transfected cells
T1 sequence (P35348 1-466): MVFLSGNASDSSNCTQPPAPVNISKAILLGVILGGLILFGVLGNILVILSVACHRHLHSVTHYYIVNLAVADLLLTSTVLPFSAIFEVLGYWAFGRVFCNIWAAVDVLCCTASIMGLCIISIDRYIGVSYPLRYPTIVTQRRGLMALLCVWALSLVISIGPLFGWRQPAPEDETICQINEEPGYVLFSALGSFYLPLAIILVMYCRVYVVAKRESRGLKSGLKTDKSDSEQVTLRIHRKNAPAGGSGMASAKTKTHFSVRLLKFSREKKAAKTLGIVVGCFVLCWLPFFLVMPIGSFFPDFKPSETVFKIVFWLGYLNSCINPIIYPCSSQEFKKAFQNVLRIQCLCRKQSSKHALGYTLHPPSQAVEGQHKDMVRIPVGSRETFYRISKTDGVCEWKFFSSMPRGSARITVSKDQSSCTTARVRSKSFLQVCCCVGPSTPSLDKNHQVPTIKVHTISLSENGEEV
Kind of assay: Radioligand binding ([3H]prazosin) to cloned α1a adrenoceptor. The following applies: read-out: Affinity (Ki) α1a. How it is done: (§1) Determination of affinity for cloned subtypes of the α1-adrenoceptor was performed in membranes from cells transfected by electroporation with DNA expressing the genes encoding each α1-adrenoceptor subtype.
(§2) Non-specific binding was determined in the presence of 10 μM phentolamine. Incubation was stopped by addition of ice-cold Tris buffer and rapid filtration through Schleicher & Schuell GF52 filters that had been pretreated with 0.2%-polyethyleneimine.
(§3) Data were expressed as mean of Ki.

For assay [2], the target named is T2, recombinant α1b-adrenoceptor (Homo sapiens, UniProt P35368).
T2 construct: expressed in transfected cells
T2 sequence (P35368 1-520): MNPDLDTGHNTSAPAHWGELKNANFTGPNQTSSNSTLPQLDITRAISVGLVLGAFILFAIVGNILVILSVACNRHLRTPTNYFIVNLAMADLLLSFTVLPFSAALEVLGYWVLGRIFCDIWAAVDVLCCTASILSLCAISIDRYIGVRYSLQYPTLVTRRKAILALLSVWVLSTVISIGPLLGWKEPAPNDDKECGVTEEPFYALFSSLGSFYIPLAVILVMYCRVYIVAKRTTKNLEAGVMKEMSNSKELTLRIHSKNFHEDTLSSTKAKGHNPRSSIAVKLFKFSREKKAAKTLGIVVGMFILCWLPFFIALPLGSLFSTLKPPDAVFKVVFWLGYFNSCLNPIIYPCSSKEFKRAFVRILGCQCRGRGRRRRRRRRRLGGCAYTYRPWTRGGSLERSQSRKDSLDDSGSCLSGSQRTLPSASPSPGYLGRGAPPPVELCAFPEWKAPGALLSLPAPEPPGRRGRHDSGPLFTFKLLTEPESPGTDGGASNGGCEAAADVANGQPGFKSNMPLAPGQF
In words: Radioligand binding ([3H]prazosin) to cloned α1b adrenoceptor. The following applies: read-out: Affinity (Ki) α1b. How it is done: as §1, §2, §3

Assay [3] addresses T3, recombinant α1d-adrenoceptor (Homo sapiens, UniProt P25100).
T3 construct: expressed in transfected cells
T3 sequence (P25100 1-572): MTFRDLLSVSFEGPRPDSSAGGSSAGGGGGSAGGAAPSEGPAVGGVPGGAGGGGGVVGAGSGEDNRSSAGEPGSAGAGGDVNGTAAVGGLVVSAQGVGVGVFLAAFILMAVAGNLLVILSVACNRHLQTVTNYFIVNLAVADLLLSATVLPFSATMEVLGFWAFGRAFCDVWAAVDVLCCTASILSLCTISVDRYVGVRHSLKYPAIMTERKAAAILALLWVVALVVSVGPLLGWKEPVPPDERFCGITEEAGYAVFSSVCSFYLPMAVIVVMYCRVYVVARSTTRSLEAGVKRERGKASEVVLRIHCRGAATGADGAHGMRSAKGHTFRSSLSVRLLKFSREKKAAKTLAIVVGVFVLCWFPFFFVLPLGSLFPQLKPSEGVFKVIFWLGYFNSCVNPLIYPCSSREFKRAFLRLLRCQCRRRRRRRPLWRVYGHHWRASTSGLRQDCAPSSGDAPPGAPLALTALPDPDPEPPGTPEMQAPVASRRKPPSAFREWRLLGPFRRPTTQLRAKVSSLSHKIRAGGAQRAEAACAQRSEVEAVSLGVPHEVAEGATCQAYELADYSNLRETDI
Kind of assay: Radioligand binding ([3H]prazosin) to cloned α1d adrenoceptor. The conditions noted are these: read-out: Affinity (Ki) α1d. How it is done: as §1, §2, §3

Assay [4] has as its system prostatic urethral contractions induced by noradrenaline. In words: Urethral contractions induced by noradrenaline injection in anaesthetized dogs after intravenous administration. The following applies: dog, i.v. The assay is classed as in vivo. Here is the method:
The experiments were performed according to the method of Imagawa et al. (J. Pharmacol. Methods, 22:103-111, 1989), with substantial modifications, as follows: adult male beagle dogs, weighing 8-10 kg, were anaesthetized with pentobarbital sodium (30 mg/kg i.v. and 2 mg/kg/h i.v.), intubated and spontaneously ventilated with room air. In order to monitor systemic blood pressure (BP), a polyethylene (PE) catheter was introduced into the aortic arch through the left femoral artery. A collateral of the left femoral vein was cannulated for infusion of anaesthetic, and the right femoral vein was cannulated for administration of compounds. For intraarterial (i.a.) injection of noradrenaline (NA), a PE catheter was introduced into the lower portion of the abdominal aorta via the right external iliac artery. Through such procedure, NA was selectively distributed to the lower urinary tract. A paramedian vertical suprapubic incision extending from the base of the pelvis to the mid-abdominal region was made and the bladder and the prostate were exposed. The bladder was manually emptied with a syringe. Prostatic urethral pressure was monitored with a Mikro-tip catheter (5F) introduced into the bladder via the external urethral meatus, and withdrawn until the pressure transducer was positioned in the prostatic region of the urethra. A ligature was secured between the neck of the bladder and urethra to isolate the response of the latter and to avoid any interaction with the bladder. Another ligature was put around the Mikro-tip catheter at the external meatus, to secure the catheter itself.
After a stabilizing period following the surgical procedure (30 minutes), in which arterial and prostatic urethral pressures were continuously monitored as basal values, i.a. administration of NA was made at intervals of 20 minutes.
The NA doses were chosen to produce an increase of at least 100% in urethral pressure. The test compounds were administered intravenously in a cumulative manner with intervals of 15-20 minutes between administrations. […]

For `COc1ccccc1N1CCN(CCCNC(=O)c2csc3c(=O)cc(-c4ccccc4)oc23)CC1` [Example 2, N-{3-[4-(2-Methoxyphenyl)-1-piperazinyl]propyl}-7-oxo-5-phenyl-7H-thieno[3,2-b]pyran-3-carboxamide], the figures for the Ki in assay [1], in assay [2] and in assay [3] were 0.1 nM, 7.52 nM and 2.46 nM, respectively. For the same molecule, in assay [4], the “UC ID50 NA (dose inhibiting by 50% the urethral contractions induced by noradrenaline)” value was determined as 1.8 µg/kg.
In the case of `O=C(NCCCN1CCN(c2ccccc2OCC(F)(F)F)CC1)c1csc2c(=O)cc(-c3ccccc3)oc12` [Example 5, 7-Oxo-5-phenyl-N-{3-[4-[2-(2,2,2-trifluoroethoxy)phenyl]-1-piperazinyl]propyl}-7H-thieno[3,2-b]pyran-3-carboxamide], the Ki was 0.045 nM in assay [1], 4.34 nM in assay [2] and 1.01 nM in assay [3]. Moreover, the “UC ID50 NA (dose inhibiting by 50% the urethral contractions induced by noradrenaline)” value in assay [4] came to 2.7 µg/kg.
